This note sets out measurements from US11957684B2, “Treatment of heavy menstrual bleeding associated with uterine fibroids” (Sumitomo Pharma Switzerland GmbH, priority 2016, dated 2024).

The test system of one series is endometriosis. In words: Example 7 12-week study in endometriosis: efficacy (VAS, B&B, EHP-30). The class given is in vivo, human. The settings on record: 3.75 mg sc/4 wk. On the procedure:
Secondary endpoints included VAS score for pelvic pain, dysmenorrhea, and dyspareunia during the treatment period. […] Subjects recorded in the patient diary every day until the end of treatment. […] Designated examinations and evaluations were performed at each visit. As used in the examples, the VAS score was evaluated using a 100 mm scale. For pain intensity, the scale was anchored by “no pain” (score of 0) and “pain as bad as you can imagine” (score of 100). […] The above items were evaluated using a patient diary that was distributed by the sponsor. Subjects filled out the patient diary every day during the treatment period or until early termination. If taking prohibited analgesics, subjects recorded this fact in the patient diary along with the accompanying pain symptoms before use of analgesics. As used in the examples, pain during menstruation and pelvic pain unrelated to menstruation were evaluated using scores on the M-B&B and B&B. The M-B&B scores were recorded by subjects on the patient diary supplied by the sponsor. Subjects filled out the patient diary every day during the treatment period or until early termination. If taking prohibited analgesics, subjects recorded this fact in the patient diary along with the accompanying pain symptoms before use of analgesics. The investigator or subinvestigator assessed each patient's pain through interviews and filled out a B&B once a month. The items that were assessed are shown below. The M-B&B score included: dysmenorrhea (severe, moderate, mild, no pain, or no menstruation); pelvic pain (severe, moderate, mild, or no pain); deep dyspareunia (severe, moderate, mild, no pain, or no intercourse). The B&B score included: dysmenorrhea (severe, moderate, mild, none, or not applicable); dyspareunia (severe, moderate, mild, none, or not applicable); pelvic pain (severe, moderate, mild, or none); pelvic tenderness (severe, moderate, mild, or none); and induration (severe, moderate, mild, or none). As used in the examples, the EHP-30 score was obtained by subjects assessing and recording their own QOL using the EHP-30 questionnaire.

A further series deals with women with endometriosis. In words: Example 7: bone mineral density and serum hormones. The class given is in vivo, human. The text has this: Subjects were diagnosed with endometriosis within the 5 years before screening and had dysmenorrhea and pelvic pain, of which either 1 or both was at least “moderate” as determined by the investigator using the Biberoglu & Behrman (B&B) scale. […] Secondary endpoints included VAS score for pelvic pain, dysmenorrhea, and dyspareunia during the treatment period.

The test system of series [1] is LH, FSH, estradiol (E2), progesterone (P), CA125. In words: Example 8A: serum LH, FSH, E2, P and CA125. The class given is in vivo, human.
Text: Study participants were premenopausal (≥20 years) Japanese women with endometriosis (EM)-associated pain who completed a preceding 12-week study and were eligible to continue for an additional 12-week treatment were enrolled. The participants has confirmed normal regular menstrual cycles (25 to 38 days per cycle) and diagnosed to have EM and EM-related dysmenorrhea and pelvic pain of at least moderate severity as determined by the physician B&B scale. The primary endpoint was the safety including assessment of change in bone mineral density (BMD) using dual energy x-ray absorptiometry, adverse events, vital signs, weight, 12-lead electrocardiograms, and clinical laboratory tests. […] Baseline characteristics were similar between randomized patients and all patients who entered the extension study.
The test system of a further series is uterine fibroids. In words: Example 10 phase 3 study versus leuprorelin in uterine fibroids: efficacy. The class given is in vivo, human. As to conditions: between Week 6 and Week 12. The protocol:
Subjects were aged 20 years or older inclusive, with uterine fibroids. […] The number of sites for this study was approximately 40.
The leuprorelin subjects were administered 1.88 mg leuprorelin, 3.75 mg leuprorelin, or placebo subcutaneously once every 4 weeks. The duration of treatment for both groups was 24 weeks, and the follow-up period was 4 weeks.
Assessment included answers to the uterine fibroid symptom and quality of life questionnaire provided in FIGS. 3A-3C; answers to the work productivity and activity impairment questionnaire: general health provided in FIGS. 66A-66B; clinical laboratory tests for hematology, chemistries, urinalysis, hormone, and biochemical bone metabolism markers.

Series [2] concerns women with uterine fibroids. In words: Example 10: safety. The settings on record: 24 wk.
Text: Secondary endpoints for safety included: Adverse events (AEs), vital signs, weight, standard 12-lead electrocardiogram (ECG), clinical laboratory tests, BMD, biochemical bone metabolism markers (serum N-telopeptide [NTELOP] and bone specific alkaline phosphatase [BAP])
The mark [3] stands for this setting: Compound 1 40 mg, leuprolide acetate 3.75 mg/4 wk.

Consider `CCNC(=O)[C@@H]1CCCN1C(=O)[C@H](CCCNC(=N)N)NC(=O)[C@H](CC(C)C)NC(=O)[C@@H](CC(C)C)NC(=O)[C@H](Cc1ccc(O)cc1)NC(=O)[C@H](CO)NC(=O)[C@H](Cc1c[nH]c2ccccc12)NC(=O)[C@H](Cc1c[nH]cn1)NC(=O)[C@@H]1CCC(=O)N1` [leuprolide acetate, reference compound], for which, in the series with endometriosis (Week 12), the “Physician B&B, dysmenorrhea” value is −2.1; the “Physician B&B, dyspareunia” value was −0.6; the “Physician B&B, non-menstrual pelvic pain” value is −1.1; the “change from baseline in EHP-30, Control and powerlessness” value is −19.6. Besides, in the series with endometriosis (Week 12), the “change from baseline in EHP-30, Self-image” value is on record as −6.1; the “change from baseline in EHP-30, emotional well-being” value is given as −8.8; the “change from baseline in EHP-30, pain” value is reported as −23.2; the “change from baseline in EHP-30, social support” value is given as −6.8. Moreover, the “change from baseline in mean VAS score, pelvic pain” value in the series on endometriosis (end of 12-wk treatment period) is −10.460±10.3013 mm. In addition, in the series with endometriosis (end of treatment), the “Modified (patient) B&B, deep dyspareunia” value is −0.36; the “Modified (patient) B&B, dysmenorrhea” value is reported as −1.16; the “Modified (patient) B&B, non-menstrual pelvic pain” value is −0.41; the “change from baseline in proportion of days with usage of analgesics” value was −8.3. The “week from which median serum estradiol was below LLQ” value in the series with women with endometriosis (setting [3]) was 4 Week. In the series with women with endometriosis (FIG. 162, relative to control (placebo)), the “mean estradiol serum concentration four weeks after discontinuation” value is reported as “only about one-fifth of the control”. Further, in series [1] (3.75 mg sc/4 wk, Week 24), the “median change in serum E2 from baseline” value is -40.0 pg/mL, the “median change in serum FSH from baseline” value was −2.730 mIU/mL, the “median change in serum LH from baseline” value is recorded as −3.140 mIU/mL and the “median change in serum progesterone (P) from baseline” value is -0.070 ng/mL. In series [1] (3.75 mg sc/4 wk, Week 24), the “percent change from baseline in CA125 concentration” value is on record as −54.15±46.359% and the “subjects with CA125 less than or equal to 35 U/mL” value was 88.9%. In series [1] (setting [3]), the “week at which median serum E2 decreased to LLQ” value is on record as 4 Week. The “proportion of subjects with a PBAC <10” value in the series on uterine fibroids came to 83.1%. In addition, the Deaths in series [2] is 0(0.0) n(%).
